Assay results: PMC12458685, “Thwarting Isomerization through Rigidity: A Promising HBED Derivative for the Chelation of Gallium-68” (Inorganic Chemistry, 2025)
Where two headings read alike, the source gives them in different places.

Experiments:
[1] = design: method as in number not given; conditions: ref number not given, cited from earlier work; for pGa^3+: under the same conditions (pH 7.4, C L = 10 μM, C Ga = 1 μM)
[2] = Acidity constants of HBCD by UV–vis pH-spectrophotometric titration; assay type: physicochemical; conditions: T = 25 °C, I = 0.15 M NaCl
Procedure: As the pH increases, the intensity of the band at 275 nm decreases, while two new bands emerge at 241 and 298 nm, with their absorbance progressively increasing. […] These pH-dependent changes in the electronic spectra allowed the determination of the acidity constants (pK a) of HBCD, which are summarized in Table .
(§1) UV–vis pH-spectrophotometric titrations were conducted using the in-cell method for the free HBCD and the out-of-cell method for the Ga^3+-HBCD mixture at T = 25 °C and I = 0.15 M NaCl. In the latter case, stock solutions of HBCD and Ga^3+ were combined in separate vials at 1:1 metal-to-ligand ratio (C Ga = C L = 20–50 μM). Small volumes (μL) of HCl and/or NaOH were used to adjust the pH. pH measurements were performed using a calibrated pH meter (Mettler-Toledo). The vials were sealed and heated to T = 80 °C to ensure complete complexation, then cooled to ambient temperature. The electronic spectra were recorded, and the equilibrium was considered to be reached when no further changes in either the pH or the electronic spectra were observed.

[3] = Acidity constants of HBCD by pH-dependent 1H NMR titration; assay type: physicochemical; conditions: T = 25 °C, I = 0.15 M NaCl
Source text: The assignment of the other four protonation constants (pK a,3, pK a,4, pK a,5 and pK a,6) is extremely challenging. […] According to NMR data of HBCD, pK a,3 can reasonably be assigned to one of the tertiary ammine. Once this dissociation occurs, the nitrogen atom can form a hydrogen bond with the phenolic group or with the other amine group. The next dissociation (pK a,4) can be attributed to the other phenolic moiety that can be then involved in the formation of the hydrogen bond with the protonated ammine. The last two dissociations can tentatively be attributed to the second phenolic group (pK a,5) and the tertiary amine (pK a,6).
(§2) ^1H NMR spectra of free HBCD or Ga^3+-HBCD mixtures (C L = C Ga = 1 mM) were recorded at T = 25 °C and I = 0.15 M NaCl, in D2O, at different pH. The pH was adjusted following the procedure used in the UV–vis experiments. To account for isotopic effects, 0.41 log units were added to the measured pH values. Under highly acidic conditions, the pH was calculated from the HCl concentration using the formula pH = −log[C(H^+)]. […] Prolonged heating was applied to accelerate the complexation reaction. The thermodynamic data were elaborated with HypSpec, HypNMR or as described in previous publications. , Hydrolysis constants and solubility products of Ga^3+ in aqueous ionic media were taken from ref .

[4] = Thermodynamic stability of Ga^3+-HBCD (UV–vis and 1H NMR in-batch titrations; pGa^3+ calculation); assay type: physicochemical; conditions: for pGa^3+ (−log[Ga^3+]free): calculated at pH 7.4, C L = 10 μM and C Ga = 1 μM
Procedure: The thermodynamic stability of Ga^3+-HBCD was evaluated by UV–vis and ^1H NMR spectroscopies. Due to the slow complexation kinetics observed at highly acidic pH values, in-batch titrations were conducted, and heating was applied to speed up the attainment of equilibrium under these conditions. Representative pH-dependent ^1H NMR and UV–vis spectra are reported in Figures S12 and S13, respectively. The overall stability constants (log β) of Ga^3+-HBCD are provided in Table while the corresponding distribution diagram is shown in Figure in comparison with HBED.
To compare the chelating abilities of HBCD and HBED, the pGa^3+ values (pGa^3+ = −log[Ga^3+]free) were calculated under physiological conditions (pH = 7.4, C L = 10 μM and C Ga = 1 μM). This parameter accounts for both ligand basicity and metal-ion hydrolysis, with higher pGa^3+ values indicating greater complex stability under the given conditions.
as §1, §2

[5] = Formation kinetics of Ga^3+-HBCD (1H NMR and UV–vis); assay type: physicochemical
Procedure: Before the thermodynamic investigation, the formation kinetics of the Ga^3+-HBCD complexes were qualitatively assessed using ^1H NMR and UV–vis spectroscopies at different pH and concentrations to determine the time needed to reach equilibrium. Understanding the equilibration conditions is essential for obtaining accurate thermodynamic data and for gaining an initial insight into the binding capacity of the new chelator.
The formation kinetics of the Ga^3+-HBCD complexes was evaluated at room temperature using ^1H NMR and UV–vis spectroscopies. Equimolar amounts of Ga^3+ and HBCD solutions (final concentrations: 1 mM for ^1H NMR, 50 μM for UV–vis) in buffered media (e.g., pH 2 HCl 10^–2 M, pH 4.5 acetic/acetate buffer). The complexation reaction was tracked by monitoring the increase in peaks characteristic of Ga^3+-ligand complex formation over time.

[6] = Stability of HBCD aqueous stock solution (NMR, ESI-MS, UV–vis); assay type: physicochemical; conditions: room temperature, up to one month
Procedure: HBCD stock solutions were prepared by dissolving a weighed amount of ligand directly in Milli-Q water to achieve a concentration of approximately 1 mM. The solubility of HBCD in water depends on pH: minimal values occur at acidic pH, where the noncharged form predominates. To enhance solubility, small amount of NaOH were added, and the solution was sonicated for 15 min. The stability of HBCD at room temperature was confirmed by NMR, ESI-MS and UV–vis measurements conducted over the course of up to one month following solution preparation.

[7] = design: method as in number not given; conditions: I = 0.10 M KCl, T = 25 °C; literature data, ref number not given; cited from earlier work
[8] = design: method as in number not given; conditions: for in vivo imaging; ref number not given; cited from earlier work

## O=C(O)CN1CCN(CC(=O)O)CCN(CC(=O)O)CCN(CC(=O)O)CC1 [DOTA, 1,4,7,10-tetraazacyclododecane-1,4,7,10-tetraacetic acid]
[1]
  pGa^3+: 18.5

## O=C(O)CN(Cc1ccccc1O)[C@@H]1CCCC[C@H]1N(CC(=O)O)Cc1ccccc1O [HBCD, N,N′-di(2-hydroxybenzyl)-(1,2-cyclohexanediamine)-N,N′-diacetic acid]
[2]; UV–vis
  pK a,3 (H4L ⇌ H^+ + H3L^–): 5.20 ± 0.06
  pK a,4 (H3L^– ⇌ H^+ + H2L^2–): 9.42 ± 0.04
  pK a,5 (H2L^2– ⇌ H^+ + HL^3–): 11.94 ± 0.03
  pK a,6 (HL^3– ⇌ H^+ + L^4–): 13.2 ± 0.2
[2]; calculated from UV–vis data
  average value of pK a,1 and pK a,2: d An average value of pK a,1 and pK a,2 equal to 1.7 ± 0.2 was calculated from UV–vis data.
[3]
  pK a,1 (H6L^2+ ⇌ H^+ + H5L^+): 1.1 ± 0.2
  pK a,2 (H5L^+ ⇌ H^+ + H4L): 3.1 ± 0.3
  pK a,3 (H4L ⇌ H^+ + H3L^–): 4.9 ± 0.4
  pK a,4 (H3L^– ⇌ H^+ + H2L^2–): 9.7 ± 0.3
  pK a,5 (H2L^2– ⇌ H^+ + HL^3–): 12.2 ± 0.1
  pK a,6 (HL^3– ⇌ H^+ + L^4–): 13.5 ± 0.2
[4]; T = 25 °C, I = 0.15 M NaCl
  log β, Ga^3+ + H^+ + L^4– ⇌ [GaHL]: 41.2 ± 0.1
  log β, Ga^3+ + L^4– ⇌ [GaL]^−: 39.2 ± 0.1
[4]
  pGa^3+ (−log[Ga^3+]free): 27.0
[5]; pH ∼ 2, room temperature, after 24 h, 1H NMR
  Ga^3+ complex formation: no complex formation was observed
[5]; pH ∼ 4.5, 50 μM, UV–vis
  time to reach completion of Ga^3+ complexation: approximately 1 h
[5]; pH ∼ 4.5, mM metal and ligand concentrations, 1H NMR
  Ga^3+ complexation rate: nearly instantaneous
[6]
  stability of HBCD in solution: confirmed

## O=C(O)CN(CCN(CC(=O)O)Cc1ccccc1O)Cc1ccccc1O [HBED, N,N′-di(2-hydroxybenzyl)ethylenediamine-N,N′-diacetic acid]
[4]
  pGa^3+ (−log[Ga^3+]free): 29.6
[7]
  pK a,2 (H5L^+ ⇌ H^+ + H4L): 2.24
  pK a,3 (H4L ⇌ H^+ + H3L^–): 4.40
  pK a,4 (H3L^– ⇌ H^+ + H2L^2–): 8.34
  pK a,5 (H2L^2– ⇌ H^+ + HL^3–): 11.03
  pK a,6 (HL^3– ⇌ H^+ + L^4–): 12.64
[1]; literature data
  log β, Ga^3+ + H^+ + L^4– ⇌ [GaHL]: 40.81
  log β, Ga^3+ + L^4– ⇌ [GaL]^−: 38.51

## O=C(O)CN(Cc1cccc(C(=O)O)n1)Cc1cccc(C(=O)O)n1 [dpaa]
[8]
  serum stability of the [^68Ga]Ga^3+ complex: poor

## transferrin: iron-transporting protein, one of the primary in vivo competitors for Ga^3+
[1]
  pGa^3+: 20.3
